Data: patent publication US5830912A, “Derivatives of 6,8-difluoro-7-hydroxycoumarin” (Molecular Probes, Inc., priority 1996, dated 1998)
Where two headings read alike, the source gives them in different places.

Columns and labels:
[1] = pH titration of fluorophores (pKa determination); format: physicochemical
Description: The dye of interest is first dissolved in a series of buffers that have each been calibrated using a pH meter. Acetate buffers are typically used in the range of pH 4-6, and phosphate buffers in the pH range 6-8. Absorption measurements are made using solutions that are approximately 10 μM in concentration, and fluorescence measurements are made using solutions that are approximately 1 μM in concentration. The absorption or emission data is then plotted versus pH to determine pKa values.

[2] = Quantum yield of selected dyes (Table 3); format: physicochemical
[3] = Photobleaching during illumination in a fluorometer; format: physicochemical; conditions: after 33 minutes of illumination in a fluorometer at the wavelength of maximum excitation
Description: | *Percent decrease in fluorescence intensity after 33 minutes of | illumination in a fluorometer at the wavelength of maximum excitation.

β-galactosidase = β-galactosidase (Escherichia coli, UniProt P00722); experiment: Fluorogenic substrate assay for β-galactosidase activity; format: biochemical; conditions: for Km: read-out: Km (Michaelis-Menton constant), 0.01 units β-galactosidase, FIG. 9
Sequence of β-galactosidase (P00722 2-1024): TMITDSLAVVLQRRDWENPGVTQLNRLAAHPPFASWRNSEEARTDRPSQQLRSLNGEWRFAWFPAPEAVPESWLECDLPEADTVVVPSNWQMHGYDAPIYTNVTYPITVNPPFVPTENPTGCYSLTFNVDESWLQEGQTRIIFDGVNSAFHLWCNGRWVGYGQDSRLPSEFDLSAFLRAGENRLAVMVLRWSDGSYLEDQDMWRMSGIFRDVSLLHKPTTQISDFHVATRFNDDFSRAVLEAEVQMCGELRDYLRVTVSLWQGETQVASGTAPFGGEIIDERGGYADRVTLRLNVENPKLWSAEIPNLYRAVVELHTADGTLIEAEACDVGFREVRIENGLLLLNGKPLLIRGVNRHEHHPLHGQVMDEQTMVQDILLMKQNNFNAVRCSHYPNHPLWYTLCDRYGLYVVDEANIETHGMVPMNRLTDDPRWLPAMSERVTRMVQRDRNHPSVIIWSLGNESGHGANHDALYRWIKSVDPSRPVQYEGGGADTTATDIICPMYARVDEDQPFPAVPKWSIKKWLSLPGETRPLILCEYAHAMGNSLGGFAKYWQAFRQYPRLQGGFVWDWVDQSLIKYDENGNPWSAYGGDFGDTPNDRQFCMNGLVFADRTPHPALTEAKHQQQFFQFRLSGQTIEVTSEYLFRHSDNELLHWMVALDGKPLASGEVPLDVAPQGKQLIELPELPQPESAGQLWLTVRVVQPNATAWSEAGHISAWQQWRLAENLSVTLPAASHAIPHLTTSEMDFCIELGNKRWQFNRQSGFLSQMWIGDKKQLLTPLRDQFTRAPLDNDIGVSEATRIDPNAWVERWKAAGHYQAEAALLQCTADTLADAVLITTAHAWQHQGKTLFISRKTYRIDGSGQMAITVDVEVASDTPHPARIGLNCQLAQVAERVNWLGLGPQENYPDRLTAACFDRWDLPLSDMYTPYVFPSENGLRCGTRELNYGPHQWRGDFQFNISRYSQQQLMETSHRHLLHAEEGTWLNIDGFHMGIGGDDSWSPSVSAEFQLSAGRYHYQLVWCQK
Description: The utility of Compound 9 as a substrate for β-galactosidase is compared with the utility of the non-fluorinated analog, 4-methylumbelliferyl β-D-galactoside (MUG).
1) Fluorescence yield: For an accurate comparison, the concentrations of the two substrates (initially approximately 10 mM) are matched by normalizing the absorbance of each substrate solution at 316 nm (pH 8.3; 20 mM sodium bicarbonate) to a value of 0.5 (assuming the extinction coefficient of each substrate is approximately equivalent). The matched samples are then diluted 1:10 into β-galactosidase buffer pH 7.0, and 2 units enzyme/mL are added. The use of Compound 9 as an enzyme substrate produces an approximately 8-fold signal enhancement over the use of MUG, when the fluorescence is measured at the reaction pH. […] However, even after optimization, the signal derived using Compound 9 (at pH 7.0) is still approximately 4-fold greater than that obtained using MUG (at pH 10).
2) Km determination: In a series of experiments, increasing amounts of each substrate are incubated with 0.01 units of β-galactosidase for 1 hour. The resulting fluorescence is measured by exciting at 360 nm, and the emission is collected at 460 nm.
3) Reaction rate: The fluorescence yield is measured at high substrate concentrations (50 μM) (relative to low enzyme concentration (0.01 units/mL)) over the course of 1 hour to compare reaction rates.
4) Enzyme sensitivity: Serial dilutions of […] are incubated with 50 μM of each substrate for 1 hour at pH 7, then fluorescence intensity at 460 nm is collected (following 360 nm excitation).

acid phosphatase = experiment: Fluorogenic substrate assay for acid phosphatase activity; format: biochemical
Description: (§1) The utility of Compound 6 as a substrate for both alkaline and acid phosphatase is compared with the utility of the non-fluorinated analog, 4-methylumbelliferyl phosphate (MUP).
(§2) 1) Fluorescence yield: For an accurate comparison, the concentrations of the two substrates (initially approximately 10 mM) are matched by normalizing the absorbance of each substrate solution at 319 nm (pH 10) to a value of 0.52 (assuming the extinction coefficient of each substrate is approximately equivalent). The matched samples are then diluted 1:10 into excess enzyme buffer (10 units/mL), and the resulting fluorescence signal is recorded as a function of time (excitation 360 nm, emission 450 nm). The fluorescence yield obtained with acid phosphatase (pH 4.8, citrate buffer) is about 10 times greater when using Compound 6 than that obtained using MUP after one hour (FIG. 4). […] Using alkaline phosphatase (pH 10.4, glycine buffer with 1 mM MgCl2) the fluorescence yield obtained using Compound 6 is approximately 25% greater than that obtained using MUP (FIG. 4);
As above, the substrate samples are matched in concentration by normalizing absorbance values at 316 nm to a value of 0.525, then diluting 1:10.
3) Enzyme sensitivity: Serial dilutions of acid phosphatase are incubated with 50 μM of each substrate for 1 hour at pH 5, then fluorescence intensity at 460 nm is collected following 360 nm excitation.

alkaline phosphatase = experiment: Fluorogenic substrate assay with alkaline phosphatase; format: biochemical; conditions: pH 10.4 glycine buffer with 1 mM MgCl2, FIG. 4
Description: as §1, §2

[4] = 1 hour, excitation 360 nm, emission 460 nm

Structure (SMILES): Cc1cc(=O)oc2c(F)c(O)c(F)cc12 [Compound 4, 6,8-difluoro-7-hydroxy-4-methylcoumarin]
- pKa ([1]; Table 3): 4.7
- Quantum Yield (pH 9) [2]: 0.89
- Photobleaching: percent decrease in fluorescence intensity [3]: 5%

Structure (SMILES): O=c1cc(C(F)(F)F)c2ccc(O)cc2o1
- pKa [1]: 7.3
- Quantum Yield (pH 9) [2]: 0.34
- Photobleaching: percent decrease in fluorescence intensity [3]: 31%

Structure (SMILES): Cc1c(CC(=O)O)c(=O)oc2cc(O)ccc12 [7-hydroxy-4-methylcoumarin-3-acetic acid]
- pKa [1]: ~ 7.4

Structure (SMILES): Cc1cc(=O)oc2c(F)c(O[C@@H]3O[C@H](CO)[C@H](O)[C@H](O)[C@H]3O)c(F)cc12 [Compound 9, 6,8-difluoro-7-hydroxy-4-methylcoumarin, β-D-galactopyranoside]
- Reaction rate with β-galactosidase compared with MUG (β-galactosidase; 50 μM substrate, 0.01 units/mL enzyme, 1 hour, FIG. 10): react more rapidly
- Enzyme concentration detection threshold, fold lower than with MUG (β-galactosidase; 50 μM substrate, 1 hour, pH 7, FIG. 11): approximately 10 fold
- Km (β-galactosidase; [4]): ~25 µM
- Fluorescence signal enhancement over MUG at the reaction pH (β-galactosidase; β-galactosidase 2 units/mL, pH 7.0, emission 460 nm, excitation 360 nm, FIG. 8): approximately 8 fold
- Fluorescence signal (at pH 7.0) relative to MUG optimized at pH 10 (β-galactosidase; β-galactosidase 2 units/mL, MUG reaction raised to pH 10 with NaOH): approximately 4 fold

Structure (SMILES): Cc1cc(=O)oc2cc(O)ccc12 [7-hydroxy-4-methylcoumarin]
- pKa [1]: 7.9
- pKa ([1]; stated in Example 47 for the product of MUG deglycosylation): 7.8
- Quantum Yield (pH 9) [2]: 0.63
- Photobleaching: percent decrease in fluorescence intensity [3]: 22%

Structure (SMILES): Cc1cc(=O)oc2cc(O)c(F)cc12
- pKa [1]: 6.4
- Quantum Yield (pH 9) [2]: 0.64
- Photobleaching: percent decrease in fluorescence intensity [3]: 20%

Structure (SMILES): Cc1cc(=O)oc2c(F)c(O)c(F)c(F)c12
- pKa [1]: 4.2
- Quantum Yield (pH 9) [2]: 0.54

Structure (SMILES): O=c1oc2c(F)c(O)c(F)cc2cc1-c1nc2ccccc2s1 [Compound 17, 3-benzothiazolyl-6,8-difluoro-7-hydroxycoumarin]
- pKa [1]: 5.0

Structure (SMILES): O=c1cc(C(F)(F)F)c2cc(F)c(O)cc2o1
- pKa [1]: 5.7
- Quantum Yield (pH 9) [2]: 0.44
- Photobleaching: percent decrease in fluorescence intensity [3]: 18%

Structure (SMILES): Cc1cc(=O)oc2cc(O[C@@H]3O[C@H](CO)[C@H](O)[C@H](O)[C@H]3O)ccc12 [MUG, 4-methylumbelliferyl β-D-galactoside]
- Km (β-galactosidase; [4]): ~60 µM

Structure (SMILES): O=c1cc(C(F)(F)F)c2cc(F)c(O)c(F)c2o1 [Compound 20, 6,8-difluoro-7-hydroxy-4-trifluoromethylcoumarin]
- pKa [1]: 4.0
- Quantum Yield (pH 9) [2]: 0.23
- Photobleaching: percent decrease in fluorescence intensity [3]: 7%

Structure (SMILES): Cc1c(CC(=O)O)c(=O)oc2c(F)c(O)c(F)cc12 [Compound 11, 6,8-difluoro-7-hydroxy-4-methylcoumarin-3-acetic acid]
- pKa [1]: ~ 6.2

Structure (SMILES): Cc1cc(=O)oc2c(F)c(OP(=O)(O)O)c(F)cc12 [Compound 6, 6,8-difluoro-7-hydroxy-4-methylcoumarin phosphate, free acid]
- Enzyme concentration detection threshold, fold lower than with MUP (acid phosphatase; acid phosphatase 0.00001 to 10 units/mL, 50 μM substrate, 1 hour, pH 5, FIGS. 6 and 7): approximately 10 fold
- Initial reaction rate of hydrolysis compared with MUP (acid phosphatase; acid phosphatase 0.01 units/mL, large excess of substrate, pH 4.8 citrate buffer, FIG. 5): significantly higher
- Fluorescence signal relative to MUP after raising both reaction solutions to pH 10 (acid phosphatase; acid phosphatase reaction at pH 4.8, then raised to pH 10): twice as large
- Sensitivity to enzyme concentration compared with MUP after raising the pH to 10 (acid phosphatase; acid phosphatase, 50 μM substrate, 1 hour at pH 5, then pH 10): approximately twice as sensitive
- Fluorescence yield relative to MUP (acid phosphatase; acid phosphatase, pH 4.8 citrate buffer, after one hour, excitation 360 nm, emission 450 nm, FIG. 4): approximately 10 times
- Fluorescence yield, increase over MUP (alkaline phosphatase): approximately 25%

Structure (SMILES): Cc1cc(=O)oc2cc(O)cc(F)c12
- pKa [1]: 5.9
- Quantum Yield (pH 9) [2]: 0.78
- Photobleaching: percent decrease in fluorescence intensity [3]: 12%
